Common to all, as to assay type: cell-based
In assay [1] the target is T1, human TLR7 (Homo sapiens, UniProt Q9NYK1).
T1 construct: host or cells: HEK-Blue cells
T1 sequence (Q9NYK1 27-1049): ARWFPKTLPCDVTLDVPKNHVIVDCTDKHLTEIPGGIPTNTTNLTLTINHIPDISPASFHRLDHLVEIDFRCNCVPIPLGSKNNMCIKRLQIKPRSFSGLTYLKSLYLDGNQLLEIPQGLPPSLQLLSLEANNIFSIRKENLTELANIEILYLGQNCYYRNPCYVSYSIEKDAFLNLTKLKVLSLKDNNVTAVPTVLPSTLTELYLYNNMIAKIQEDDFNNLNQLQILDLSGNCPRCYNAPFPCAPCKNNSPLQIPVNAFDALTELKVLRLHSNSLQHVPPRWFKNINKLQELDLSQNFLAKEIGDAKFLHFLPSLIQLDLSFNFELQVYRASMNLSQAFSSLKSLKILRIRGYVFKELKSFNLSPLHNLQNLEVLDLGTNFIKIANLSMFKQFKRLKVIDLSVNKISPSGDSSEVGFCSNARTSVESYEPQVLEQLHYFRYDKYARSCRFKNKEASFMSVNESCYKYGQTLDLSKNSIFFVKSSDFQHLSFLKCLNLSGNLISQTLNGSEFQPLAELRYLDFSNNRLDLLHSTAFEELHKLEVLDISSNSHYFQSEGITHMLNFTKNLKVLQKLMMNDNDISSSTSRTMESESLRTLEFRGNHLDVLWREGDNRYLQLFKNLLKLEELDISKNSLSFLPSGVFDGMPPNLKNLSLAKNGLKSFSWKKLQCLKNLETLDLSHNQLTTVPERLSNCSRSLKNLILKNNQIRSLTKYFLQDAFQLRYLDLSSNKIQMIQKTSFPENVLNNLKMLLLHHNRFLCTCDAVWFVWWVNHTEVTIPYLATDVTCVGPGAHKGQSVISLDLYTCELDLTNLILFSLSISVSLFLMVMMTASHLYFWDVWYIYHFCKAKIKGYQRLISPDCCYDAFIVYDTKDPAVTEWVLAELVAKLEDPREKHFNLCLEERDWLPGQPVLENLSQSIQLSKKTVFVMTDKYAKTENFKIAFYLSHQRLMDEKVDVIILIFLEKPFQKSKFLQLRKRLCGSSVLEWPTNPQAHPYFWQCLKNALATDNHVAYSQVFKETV
Kind of assay: TLR7 inhibition reporter assay (HEK-Blue cells, SEAP reporter, gardiquimod stimulation). To be noted: HEK-Blue cells overexpressing human TLR7, SEAP reporter, gardiquimod 7.5 μM. The method, boiled down: (§1)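 HEK-Blue cells with NF-κB/AP-1-driven SEAP reporter, pre-treated 30 min at room temperature with compound (0.05 nM-50 μM). Stimulants: gardiquimod 7.5 μM (TLR7), R848 15.9 μM (TLR8) or ODN2006 5 nM (TLR9). SEAP measured after 22 h at 37° C.; percent inhibition versus agonist-plus-DMSO and known-inhibitor wells.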
Background: In a reporter assay the amount or activity of a reporter protein is the signal.

The target of assay [2] is T2, human TLR8 (Homo sapiens, UniProt Q9NR97).
T2 construct: host or cells: HEK-Blue cells
T2 sequence (Q9NR97 27-1041): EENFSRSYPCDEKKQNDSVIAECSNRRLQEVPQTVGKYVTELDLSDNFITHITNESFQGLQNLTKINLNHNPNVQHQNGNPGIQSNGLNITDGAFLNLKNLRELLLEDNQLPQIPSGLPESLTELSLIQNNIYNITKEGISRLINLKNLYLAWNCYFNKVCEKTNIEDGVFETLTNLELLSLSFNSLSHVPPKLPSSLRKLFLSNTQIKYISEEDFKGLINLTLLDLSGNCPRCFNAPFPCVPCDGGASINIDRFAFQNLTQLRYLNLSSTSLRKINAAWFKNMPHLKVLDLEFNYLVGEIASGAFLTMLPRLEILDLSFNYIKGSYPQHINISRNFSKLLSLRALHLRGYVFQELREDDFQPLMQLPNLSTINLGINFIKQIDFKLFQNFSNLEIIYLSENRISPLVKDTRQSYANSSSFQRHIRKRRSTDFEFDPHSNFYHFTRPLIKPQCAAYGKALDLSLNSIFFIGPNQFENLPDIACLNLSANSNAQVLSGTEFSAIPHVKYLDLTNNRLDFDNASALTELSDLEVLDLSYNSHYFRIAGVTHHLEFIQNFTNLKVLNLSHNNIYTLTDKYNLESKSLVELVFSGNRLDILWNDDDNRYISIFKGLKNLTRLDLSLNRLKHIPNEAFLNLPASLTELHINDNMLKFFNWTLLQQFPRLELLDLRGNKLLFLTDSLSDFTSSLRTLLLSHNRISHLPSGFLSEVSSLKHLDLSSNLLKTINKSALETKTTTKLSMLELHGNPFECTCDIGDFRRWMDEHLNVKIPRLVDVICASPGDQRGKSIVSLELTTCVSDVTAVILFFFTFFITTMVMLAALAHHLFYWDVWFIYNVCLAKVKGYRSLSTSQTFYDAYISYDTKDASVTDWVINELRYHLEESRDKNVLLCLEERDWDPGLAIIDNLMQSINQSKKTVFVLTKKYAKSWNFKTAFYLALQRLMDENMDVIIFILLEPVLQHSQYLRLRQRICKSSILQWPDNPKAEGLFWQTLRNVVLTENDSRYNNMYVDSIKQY
Put plainly: TLR8 inhibition reporter assay (HEK-Blue cells, SEAP reporter, R848 stimulation). To be noted: HEK-Blue cells overexpressing human TLR8, SEAP reporter, R848 15.9 μM. The method, boiled down:
as §1

Assay [3] deals with T3, human TLR9 (Homo sapiens, UniProt Q9NR96).
T3 construct: host or cells: HEK-Blue cells
T3 sequence (Q9NR96 26-1032): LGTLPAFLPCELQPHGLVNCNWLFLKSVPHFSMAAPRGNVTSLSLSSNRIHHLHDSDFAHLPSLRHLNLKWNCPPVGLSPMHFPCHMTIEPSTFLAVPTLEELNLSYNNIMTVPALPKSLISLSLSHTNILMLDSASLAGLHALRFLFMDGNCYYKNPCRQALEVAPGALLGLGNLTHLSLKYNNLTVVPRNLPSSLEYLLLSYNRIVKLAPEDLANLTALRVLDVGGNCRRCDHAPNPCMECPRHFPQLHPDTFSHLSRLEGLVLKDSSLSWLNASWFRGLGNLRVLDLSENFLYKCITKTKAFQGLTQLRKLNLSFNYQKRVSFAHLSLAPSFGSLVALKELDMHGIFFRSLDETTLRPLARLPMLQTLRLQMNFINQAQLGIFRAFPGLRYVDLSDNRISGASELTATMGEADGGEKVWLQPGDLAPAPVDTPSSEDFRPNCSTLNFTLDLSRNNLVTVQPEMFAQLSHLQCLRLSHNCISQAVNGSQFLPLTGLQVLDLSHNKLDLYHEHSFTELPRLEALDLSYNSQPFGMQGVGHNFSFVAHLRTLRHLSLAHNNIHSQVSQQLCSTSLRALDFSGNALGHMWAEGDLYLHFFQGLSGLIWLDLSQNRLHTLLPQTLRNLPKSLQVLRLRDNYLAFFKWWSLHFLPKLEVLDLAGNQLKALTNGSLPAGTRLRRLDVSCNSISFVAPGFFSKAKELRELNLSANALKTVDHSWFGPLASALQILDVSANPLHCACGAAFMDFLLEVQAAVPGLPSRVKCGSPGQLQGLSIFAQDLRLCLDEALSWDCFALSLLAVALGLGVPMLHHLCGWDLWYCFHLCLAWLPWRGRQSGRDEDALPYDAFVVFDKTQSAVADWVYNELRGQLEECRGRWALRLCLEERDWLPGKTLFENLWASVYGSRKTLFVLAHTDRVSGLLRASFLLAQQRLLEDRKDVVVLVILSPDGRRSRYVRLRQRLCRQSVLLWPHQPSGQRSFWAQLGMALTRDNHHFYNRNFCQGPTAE
Put plainly: TLR9 inhibition reporter assay (HEK-Blue cells, SEAP reporter, ODN2006 stimulation). To be noted: HEK-Blue cells overexpressing human TLR9, SEAP reporter, ODN2006 5 nM. The method, boiled down:
as §1

Among the data in patent US11878975B2, “Substituted indole compounds useful as TLR inhibitors” (BRISTOL-MYERS SQUIBB COMPANY, priority 2017, dated 2024) are IC50 values, retold here.

`Cc1cc(-c2[nH]c3ccc(CC4CCCN4Cc4ccccc4)cc3c2C(C)C)cn2ncnc12` (single isomer, unassigned) [Example 397, 5-[(1-benzylpyrrolidin-2-yl)methyl]-2-{8-methyl-[1,2,4]triazolo[1,5-a]pyridin-6-yl}-3-(propan-2-yl)-1H-indole]: the IC50 (in general, the concentration needed to halve the response being measured) worked out at 3 nM in assay [1], 5.4 nM in assay [2] and 1600 nM in assay [3].
Regarding `Cc1c(-c2[nH]c3ccc(C4CN(C5CCOC5)C4)cc3c2C(C)C)cn2cnnc2c1C` (stereo not drawn) [Example 538], the IC50 in assay [1] came out at 33 nM; in assay [2] it was 45 nM; in assay [3], 16500 nM.
For `COc1cc(-c2[nH]c3ccc(C4CCC(N5CC[C@@H](N(C)C)C5)CC4)cc3c2C(C)C)cn2ncnc12` (stereo partly drawn) [Example 28] the same measures were 0.17 nM, 0.26 nM and 328 nM.
Take `Cc1cc(-c2[nH]c3ccc(C4CCC(N5CCOCC5)CC4)cc3c2C(C)C)cn2ncnc12` (stereo not drawn) [Example 103]: the IC50 came to 2 nM in assay [1], 7.4 nM in assay [2] and 4120 nM in assay [3].
`Cc1c(-c2[nH]c3ccc(C4CN(C(=O)CN(C)C)C4)cc3c2C(C)C)cn2ncnc2c1C` [Example 564]: the IC50 in assay [1] was found to be 3 nM; in assay [2], 7 nM; in assay [3], 7310 nM.
For the compound `COc1cc(-c2[nH]c3ccc(C4CCC(N(C)CC(F)F)CC4)cc3c2C(C)C)cn2ncnc12` (stereo not drawn) [Example 74], the IC50 in assay [1] turned out to be 3 nM; in assay [2], 13 nM; in assay [3], 24500 nM.
Turning to `COc1cc(-c2[nH]c3ccc(C4CCC(N(C)C(C)C)C4)cc3c2C(C)C)cn2ncnc12` (single isomer, unassigned) [Example 275, N-isopropyl-3-(3-isopropyl-2-(8-methoxy-[1,2,4]triazolo[1,5-a]pyridin-6-yl)-1H-indol-5-yl)-N-methylcyclopentan-1-amine], the IC50 was determined as 0.86 nM in assay [1], 0.23 nM in assay [2] and 1270 nM in assay [3].
For `Cc1c(-c2[nH]c3ccc(C4CCCNC4)cc3c2C(C)C)cn2ncnc2c1C` (stereo not drawn) [Example 190], the values for the IC50 in assay [1], in assay [2] and in assay [3] were 0.43 nM, 0.35 nM and 851 nM, respectively.
For `COCCN1CCN(C2CCC(c3ccc4[nH]c(-c5cc(OC)c6ncnn6c5)c(C(C)C)c4c3)CC2)CC1` (single isomer, unassigned) [Example 38], the IC50 came to 1 nM in assay [1], 2.1 nM in assay [2] and 2090 nM in assay [3].
On to `CCc1c(-c2ccnc(C)c2)[nH]c2ccc(CNC(=O)C3CC4(CCNCC4)C3)cc12` [Example 447], for which the IC50 in assay [1] came out at 4010 nM; in assay [2], 14 nM; in assay [3], 1140 nM.
On to `COc1ccc(-c2[nH]c3ccc(C4CCC(N)CC4)cc3c2C(C)C)cc1OC` (stereo not drawn) [Example 450], for which the IC50 came to 8 nM in assay [1], 11 nM in assay [2] and 2200 nM in assay [3].
As for `CNC(=O)CNC1CCC(c2ccc3[nH]c(-c4cc(C)nc(C)c4)c(C(C)C)c3c2)CC1` (single isomer, unassigned) [Example 180, 2-((4-(2-(2,6-dimethylpyridin-4-yl)-3-isopropyl-1H-indol-5-yl)cyclohexyl)amino)-N-methylacetamide], the IC50 in assay [1] turned out to be 2 nM; in assay [2], 4.5 nM; in assay [3], 277 nM.
Regarding `CNCC(=O)N1CCCC(c2ccc3[nH]c(-c4cc(OC)c5ncnn5c4)c(C(C)C)c3c2)C1` (stereo not drawn) [Example 211, 1-(3-(3-isopropyl-2-(8-methoxy-[1,2,4]triazolo[1,5-a]pyridin-6-yl)-1H-indol-5-yl)piperidin-1-yl)-2-(methylamino)ethan-1-one], the IC50 in assay [1] was found to be 3 nM; in assay [2] it was 11 nM; in assay [3] it was 8000 nM.
With `Cc1cc(-c2[nH]c3ccc(C4CN(C(=O)CN(C)C)C4)cc3c2C(C)C)cn2ncnc12` [Example 266, 2-(dimethylamino)-1-(3-(3-isopropyl-2-(8-methyl-[1,2,4]triazolo[1,5-a]pyridin-6-yl)-1H-indol-5-yl)azetidin-1-yl)ethan-1-one], the IC50 in assay [1] worked out at 0.31 nM; in assay [2], 2.9 nM; in assay [3], 1450 nM.
With `Cc1cc(-c2[nH]c3ccc(C4CCC(NC5CC5)CC4)cc3c2C(C)C)cn2ncnc12` (single isomer, unassigned) [Example 16], the IC50 in assay [1] is 0.15 nM; in assay [2], 0.47 nM; in assay [3], 661 nM.
Turning to `Cc1c(-c2[nH]c3ccc(C4CC(NCCS(C)(=O)=O)C4)cc3c2C(C)C)cn(C)c(=O)c1C` (stereo not drawn) [Example 494], the results for the IC50 in assay [1], in assay [2] and in assay [3] were 5 nM, 0.48 nM and 12000 nM, respectively.
As to `Cc1cc(-c2[nH]c3ccc(CCN4CCCC(F)(F)C4)cc3c2C(C)C)cn(C)c1=O` [Example 404], the IC50 in assay [1] is 50 nM; in assay [2], 31 nM; in assay [3] it was more than 50000 nM.
Take `Cc1cc(-c2[nH]c3ccc(C4CNC4)cc3c2C(C)C)cc(C)n1` [Example 259]: the IC50 in assay [1] is 4 nM; in assay [2] it was 11 nM; in assay [3], 700 nM.
